Laboratory results: US5543276A, “Color photographic element containing new epoxy scavengers for residual magenta coupler” (Eastman Kodak Company, priority 1994, dated 1996)

How the values were obtained:
[1] = Residual magenta coupler M-20 in unexposed strips, raw stock and RA-4 processed; conditions: coated M-20 32.8 mg/ft^2; for M-20 remaining, Processed after 2wk / M-20 remaining, Processed after 4wk: unexposed strips, standard RA-4 developer; for M-20 remaining, Processed after 2wk / M-20 remaining, Raw Stock after 2wk RT: 2 weeks room temperature; for M-20 remaining, Processed after 4wk / M-20 remaining, Raw Stock after 4wk: 4 weeks room temperature; for M-20 remaining, Raw Stock after 2wk RT / M-20 remaining, Raw Stock after 4wk: unprocessed strips
Experimental: A dispersion of the magenta coupler M-20 and scavenger coupler S-1 were prepared in the following manner:
The oil phase was prepared by combining 1.875 grams of S-1 with 0.852 grams of myrisitc acid and 30 grams of ethyl acetate. The solution was stirred on a hot plate for about 5 minutes.
The aqueous phase was prepared by combining 3.0 grams of a 10% solution of Alkanol XC with 17.6 grams of a 11.36% solution of Type IV gelatin in water. 26.7 grams of distilled water was then added and the solution was stirred on a hot plate for about five minutes.
The aqueous phase was combined with the oil phase and the mixture was stirred. The mixture was then passed three times through a colloid mill to obtain the dispersion. The ethyl acetate was removed by evaporation under reduced pressure. [drawing 42] The dispersions were then coated in the format shown below (the numbers indicate the amount of each component in mg/ft^2).
The coating format also contains a UV protection layer and an overcoat (not shown). Unexposed strips were process in standard RA-4 developer and then stored at room temperature. The strips were analyzed for residual coupler as a function of time. A set of unprocessed strips were stored at room temperature for the same length of time to check for reaction between coupler and S-1 in raw stock. A second set of unexposed strips were processed in standard RA-4 developer and then subjected to two weeks of 50 klux high intensity sunshine radiation after storage at room temperature for two weeks. The change in Status A blue density was measured. […]

[2] = Change in Status A blue density (photochemical yellowing) of processed unexposed strips under high intensity sunshine radiation; conditions: RA-4 processed, 2 weeks room temperature, then two weeks 50 klux high intensity sunshine
Experimental: The coating format also contains a UV protection layer and an overcoat (not shown). Unexposed strips were process in standard RA-4 developer and then stored at room temperature. The strips were analyzed for residual coupler as a function of time. A set of unprocessed strips were stored at room temperature for the same length of time to check for reaction between coupler and S-1 in raw stock. A second set of unexposed strips were processed in standard RA-4 developer and then subjected to two weeks of 50 klux high intensity sunshine radiation after storage at room temperature for two weeks. The change in Status A blue density was measured.
This coating also contained a UV protection layer and overcoat (not shown). Strips based on the coating were subjected to the same set of tests as in Example 4.

[3] = epoxy compound coated in separate layers adjacent to imaging layer; copending application Ser. No. 08/000,431; cited from earlier work

Row | M-20 remaining, Processed after 2wk [1] [mg/ft.2] | M-20 remaining, Processed after 4wk [1] [mg/ft.2] | M-20 remaining, Raw Stock after 2wk RT [1] [mg/ft.2] | M-20 remaining, Raw Stock after 4wk [1] [mg/ft.2] | Compound | Delta Blue Density [2] | loss of coupler prior to processing [3]
1 | 29.9 | 29.3 | 30.2 | 28.8 | O=C(OCCCCCCCCCC1CO1)c1ccccc1C(=O)OCCCCCCCCCC1CO1 (centres unmarked) [S-1] | 0.13 | negligible loss of coupler prior to processing
2 | 14.9 | 13.9 | 28.6 | 28.4 | O=C(CCCCCCCCC1CO1)Oc1ccc(NS(=O)(=O)c2ccc(F)cc2F)cc1 (centres unmarked) [SI-20] | 0.05 | –
